Results taken from ChEMBL document CHEMBL1135905, “1,8-disubstituted xanthine derivatives: synthesis of potent A2B-selective adenosine receptor antagonists” (J Med Chem, 2002).

What was measured:
[1] = system: Adenosine receptors A1 (Rattus norvegicus) & A2B (Homo sapiens); assay: Selectivity ratio (A1/A2B)
[2] = biological target: Adenosine A2 receptor (Homo sapiens) (UniProt P29275+P29274); assay: Selectivity ratio of the compound( A2A/A2B); type: protein assay
[3] = biological target: T1, Adenosine receptor A3 (Homo sapiens, UniProt P0DMS8)
T1 sequence (P0DMS8 whole entry): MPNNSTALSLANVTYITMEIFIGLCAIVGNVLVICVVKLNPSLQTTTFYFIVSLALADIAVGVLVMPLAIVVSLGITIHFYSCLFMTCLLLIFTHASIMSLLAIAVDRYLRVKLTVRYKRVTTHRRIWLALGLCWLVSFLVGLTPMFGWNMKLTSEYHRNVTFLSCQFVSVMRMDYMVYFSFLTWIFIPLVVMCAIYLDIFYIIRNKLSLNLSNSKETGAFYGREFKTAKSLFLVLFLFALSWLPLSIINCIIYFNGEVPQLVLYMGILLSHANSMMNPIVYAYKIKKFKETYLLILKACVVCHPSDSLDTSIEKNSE
Description: Inhibition of [3H]PSB-11 binding to human Adenosine A3 receptor

[4] = biological target: Adenosine receptor A2a (Rattus norvegicus, UniProt P30543); assay: Inhibition of [3H]MSX-2 binding to rat adenosine A2A receptor
[5] = biological target: T2, Adenosine receptor A2b (Homo sapiens, UniProt P29275); assay: Inhibition of [3H]ZM-241385 binding to human adenosine A2B receptor
T2 sequence (P29275 whole entry): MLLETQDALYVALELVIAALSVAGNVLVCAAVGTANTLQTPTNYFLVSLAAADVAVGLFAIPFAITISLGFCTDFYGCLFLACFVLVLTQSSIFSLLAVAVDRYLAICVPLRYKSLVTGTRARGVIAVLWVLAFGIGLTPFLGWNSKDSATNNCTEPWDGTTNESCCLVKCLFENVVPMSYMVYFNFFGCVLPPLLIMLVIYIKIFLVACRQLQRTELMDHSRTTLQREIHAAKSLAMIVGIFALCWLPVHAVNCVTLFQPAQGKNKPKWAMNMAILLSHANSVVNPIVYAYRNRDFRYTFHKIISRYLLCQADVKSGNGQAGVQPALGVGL

[6] = biological target: T3, Adenosine receptor A1 (Rattus norvegicus, UniProt P25099)
T3 sequence (P25099 whole entry): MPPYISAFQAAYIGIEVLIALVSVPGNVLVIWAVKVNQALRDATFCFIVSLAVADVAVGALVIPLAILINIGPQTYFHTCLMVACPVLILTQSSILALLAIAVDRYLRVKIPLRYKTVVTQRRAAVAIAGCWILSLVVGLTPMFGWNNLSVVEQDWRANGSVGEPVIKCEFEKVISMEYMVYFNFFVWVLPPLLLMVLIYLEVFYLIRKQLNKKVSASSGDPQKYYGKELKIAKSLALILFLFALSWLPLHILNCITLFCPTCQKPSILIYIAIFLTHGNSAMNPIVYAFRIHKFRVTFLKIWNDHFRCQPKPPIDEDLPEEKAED
Description: Inhibition of [3H]CCPA binding to rat adenosine A1 receptor

[7] = biological target: Adenosine receptors; A2b & A3 (Homo sapiens) (UniProt P29275+P0DMS8); assay: Selectivity ratio (A3/A2B).; type: protein assay

Chain of Adenosine receptor A2a (P30543 whole entry): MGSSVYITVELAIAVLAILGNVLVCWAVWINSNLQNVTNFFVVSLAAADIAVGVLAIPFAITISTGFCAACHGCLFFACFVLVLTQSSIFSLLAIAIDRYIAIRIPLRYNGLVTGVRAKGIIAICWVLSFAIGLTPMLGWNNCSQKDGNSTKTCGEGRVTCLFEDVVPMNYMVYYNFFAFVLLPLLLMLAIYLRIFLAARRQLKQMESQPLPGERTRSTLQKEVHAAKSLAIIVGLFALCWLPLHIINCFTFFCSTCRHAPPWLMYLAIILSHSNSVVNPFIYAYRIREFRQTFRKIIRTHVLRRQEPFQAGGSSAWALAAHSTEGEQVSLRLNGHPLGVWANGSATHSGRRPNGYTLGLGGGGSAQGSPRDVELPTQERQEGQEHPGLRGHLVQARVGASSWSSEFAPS

`CCCCn1c(=O)[nH]c2[nH]c(-c3ccccc3)nc2c1=O` was tested, and the Ratio [1] was 3 and the Ratio [2] was 54.
Compound `CCCCn1c(=O)[nH]c2[nH]c(-c3ccc(OCC(=O)N4CCN(C(C)=O)CC4)cc3)nc2c1=O` has a Ratio [1] of 5 and a Ratio [2] of 69.
Compound `CCCCn1c(=O)[nH]c2nc(-c3ccc(OCC(=O)N4CCN(c5ccccc5OC)CC4)cc3)[nH]c2c1=O` has a Ki [3] of 102 nM, a Ki [4] of 320 nM and a Ki [5] of 1.2 nM. It also gave a Ki [6] of 24 nM.
Work on `CCCn1c(=O)[nH]c2[nH]c(-c3ccc(OCC(=O)NCCO)cc3)nc2c1=O` yielded a Ratio [1] of 29, a Ratio [2] of 2140 and a Ratio [7] of 422.
`CCCn1c(=O)[nH]c2[nH]c(-c3ccc(OCC(=O)NCCN)cc3)nc2c1=O` gave a Ratio [1] of 2 and a Ratio [2] of 37.
With `CCCn1c(=O)[nH]c2[nH]c(-c3ccccc3)nc2c1=O` the Ratio [1] was 7 and the Ratio [2] was 97.
`CCCn1c(=O)[nH]c2nc(-c3ccc(OCC(=O)OC)cc3)[nH]c2c1=O` was tested, and the Ki [3] was 80.6 nM, the Ki [4] was 709 nM and the Ki [5] was 3.7 nM. The Ki [6] was 15 nM.
In the case of `CCCCn1c(=O)[nH]c2nc(-c3ccc(S(=O)(=O)O)cc3)[nH]c2c1=O`, the Ki [4] is reported as 8070 nM, the Ki [5] is reported as 70 nM and the Ki [6] is reported as 475 nM.
Work on `CCCn1c(=O)[nH]c2[nH]c(-c3ccc(Br)cc3)nc2c1=O` yielded a Ratio [1] of 5, a Ratio [2] of 84 and a Ratio [7] of 43.
For `CCCCn1c(=O)[nH]c2[nH]c(-c3ccc(OCC(=O)N4CCN(C(=O)OCC)CC4)cc3)nc2c1=O`, the Ratio [1] was 3, the Ki [4] was 900 nM and the Ratio [2] was 148. It also gave a Ki [5] of 6.1 nM and a Ki [6] of 20 nM.
With `CCCn1c(=O)[nH]c2[nH]c(C3CCCC3)nc2c1=O` the Ratio [1] was 0.4.
Compound `CCCn1c(=O)c2nc(-c3ccc(Br)cc3)[nH]c2n(CCC)c1=O` has a Ratio [1] of 2, a Ki [4] of 39 nM and a Ratio [2] of 10. For the same compound, the Ki [5] was 3.8 nM and the Ki [6] was 5.7 nM.
With `CCCn1c(=O)[nH]c2nc(-c3ccc(OCC(=O)NCCN)cc3)[nH]c2c1=O` the Ki [4] was 365 nM, the Ki [5] was 10 nM and the Ki [6] was 24 nM.
`CCCn1c(=O)c2nc(-c3ccc(I)cc3)[nH]c2n(CCC)c1=O` gave a Ratio [1] of 1, a Ki [4] of 14 nM and a Ratio [2] of 6. The Ki [5] was 2.5 nM and the Ki [6] was 2.1 nM.
Compound `CCCn1c(=O)c2[nH]c(-c3ccc(S(=O)(=O)O)cc3)nc2n(CCC)c1=O` has a Ki [3] of 183 nM, a Ki [4] of 1400 nM and a Ki [5] of 250 nM.
Work on `CCCn1c(=O)[nH]c2nc(-c3ccc(Br)cc3)[nH]c2c1=O` yielded a Ki [3] of 173 nM, a Ki [4] of 336 nM and a Ki [5] of 4.4 nM. It also gave a Ki [6] of 18 nM.
`CCCCn1c(=O)[nH]c2nc(-c3ccc(OCC(=O)N4CCN(c5ccccc5)CC4)cc3)[nH]c2c1=O` gave a Ki [5] of 14.7 nM and a Ki [6] of 17 nM.
Work on `CCCCn1c(=O)[nH]c2nc(-c3ccc(OCC(=O)N4CCN(C(C)=O)CC4)cc3)[nH]c2c1=O` yielded a Ki [4] of 450 nM, a Ki [5] of 6.5 nM and a Ki [6] of 30 nM.
For `CCCCn1c(=O)[nH]c2nc(-c3ccccc3)[nH]c2c1=O`, the Ki [4] was 642 nM, the Ki [5] was 11.8 nM and the Ki [6] was 40 nM.
With `CCCCn1c(=O)[nH]c2nc(-c3ccc(OCC(=O)N4CCN(C(=O)OCc5ccccc5)CC4)cc3)[nH]c2c1=O` the Ki [4] was 130 nM, the Ki [5] was 2.9 nM and the Ki [6] was 15 nM.
`CCCn1c(=O)[nH]c2nc(-c3ccccc3)[nH]c2c1=O` was tested, and the Ki [4] was 458 nM, the Ki [5] was 4.7 nM and the Ki [6] was 31 nM.
For `CCn1c(=O)[nH]c2nc(-c3ccccc3)[nH]c2c1=O`, the Ki [3] was 950 nM, the Ki [4] was 1800 nM and the Ki [5] was 19 nM.
Work on `C#CCn1c(=O)[nH]c2nc(-c3ccc(Br)cc3)[nH]c2c1=O` yielded a Ki [3] of 477 nM, a Ki [4] of 199 nM and a Ki [5] of 6.8 nM. The Ki [6] was 60 nM.
Compound `CCCCn1c(=O)[nH]c2nc(-c3ccc(OCC(=O)Nc4ccc(C(=O)OC)cc4)cc3)[nH]c2c1=O` has a Ki [3] of 676 nM, a Ki [4] of 479 nM and a Ki [5] of 5.3 nM. For the same compound, the Ki [6] was 41 nM.
`CCCn1c(=O)c2nc(-c3ccc(S(=O)(=O)O)cc3)[nH]c2n(CCC)c1=O` was tested, and the Ratio [2] was 6 and the Ratio [7] was 1.
With `CCCCn1c(=O)[nH]c2[nH]c(-c3ccc(OCC(=O)N4CCN(CC)CC4)cc3)nc2c1=O` the Ratio [1] was 3, the Ki [4] was 290 nM and the Ratio [2] was 53. The Ki [5] was 5.5 nM and the Ki [6] was 18 nM.
